Measured values as given in patent US11986459B2, “Methods for the treatment of Mycobacterium infections” (University of South Florida, priority 2020, dated 2024).
Values after ≈ are worked out from the molar mass of the structure shown. Read-outs that look alike come from different tables or passages of the source.

Assays:
[1] = test system: replicating stage M. tuberculosis (Mtb); experiment: MIC against replicating Mtb; type: cell-based, Mycobacterium tuberculosis; conditions: for MIC: Mycobacterium tuberculosis
[2] = test system: M. abscessus (Mab); experiment: M. abscessus (Mab) inhibition; type: cell-based, Mycobacterium abscessus; conditions: Table 10; pure compounds
[3] = test system: S. pyogenes; conditions: reported in literature; cited from earlier work
[4] = test system: S. typhimurium; conditions: reported in literature; cited from earlier work
[5] = test system: S. aureus; conditions: reported in literature; cited from earlier work
[6] = test system: E. co/i; conditions: reported in literature; cited from earlier work
[7] = test system: C. albicans; conditions: reported in literature; cited from earlier work
[8] = test system: MRSA; conditions: literature ref 20; cited from earlier work
[9] = molecular target: α-glucosidase; conditions: literature ref 12; read-out: α-glucosidase inhibition activity IC50; cited from earlier work
[10] = test system: zebrafish embryos; conditions: reported in literature; cited from earlier work
[11] = test system: murine macrophage cell line J774; experiment: Cytotoxicity assay with J774 macrophages; conditions: for IC50: Mus musculus
[12] = molecular target: acetylcholinesterase (AchE) (Homo sapiens, UniProt P22303); conditions: literature ref 13; read-out: IC50 against acetylcholinesterase (AchE); cited from earlier work
[13] = Table 10, pure compounds, replicating Mtb, read-out: MIC (Mtb-rep)

Sequence of acetylcholinesterase (AchE) (P22303 32-614): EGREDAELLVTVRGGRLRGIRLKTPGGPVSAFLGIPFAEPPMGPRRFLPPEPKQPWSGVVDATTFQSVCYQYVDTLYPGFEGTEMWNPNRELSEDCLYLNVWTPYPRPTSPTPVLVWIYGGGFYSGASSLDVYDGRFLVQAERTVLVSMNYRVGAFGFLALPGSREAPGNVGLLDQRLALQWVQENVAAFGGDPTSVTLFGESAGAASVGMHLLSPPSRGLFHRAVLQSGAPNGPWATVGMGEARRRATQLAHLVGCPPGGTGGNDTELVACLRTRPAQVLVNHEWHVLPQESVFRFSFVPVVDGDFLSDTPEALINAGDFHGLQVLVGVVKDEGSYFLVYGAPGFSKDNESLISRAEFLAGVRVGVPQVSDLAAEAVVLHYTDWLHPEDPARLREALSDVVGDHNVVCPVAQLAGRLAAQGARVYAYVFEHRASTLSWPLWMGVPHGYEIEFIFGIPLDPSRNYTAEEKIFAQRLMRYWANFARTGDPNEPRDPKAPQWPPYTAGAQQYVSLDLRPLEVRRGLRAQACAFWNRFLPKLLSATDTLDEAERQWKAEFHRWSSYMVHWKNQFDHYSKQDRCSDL

Question: Which results are given for `C/C=C(/C(=O)O)N1C(=O)C=C(C)C1=O` [EtOAc-G-4, pencolide]?
Answer: MIC [1, 13]: 50 µg/mL (≈ 256 µM); M. abscessus [2]: 100 µg/mL; activity against S. pyogenes [3]: inhibition; activity against S. typhimurium [4]: inhibition; inhibition of S. aureus [5]: inhibition; inhibition of E. co/i [6]: inhibition; inhibition of C. albicans [7]: inhibition

Question: For `CCC(C)/C=C(C)/C=C/C1=CC2=C(Cl)C(=O)C(C)(OC(C)=O)C(=O)C2=CN1CCCC(=O)O` (stereo not drawn) [Isochromophione IX, isochromophilone IX], which “MIC, inhibition against MRSA” value [8] is on record?
Answer: The value was 50 µg/mL (≈ 105 µM).

Question: For `C[C@@H]1CC(=O)CCCCCc2cc(O)cc(O)c2C(=O)O1` [(3R)-5-oxo-de-O-methyllasiodiplodin], which IC50 [9] is on record?
Answer: The IC50 was 54.6 µM.

Question: Which MIC [1, 13] does the source give for `COc1cc(CC(=O)CO)c(C=O)c(O)c1C` [EtOAc-M-6-3] here?
Answer: Its MIC is 50 µg/mL (≈ 210 µM).

Question: And the M. abscessus [2]?
Answer: Its M. abscessus is 100 µg/mL.

Question: With `C[C@@H]1CCC[C@H](O)CCCc2cc(O)cc(O)c2C(=O)O1` [(3R,7R)-7-hydroxy-de-O-methyllasiodiplodin] as the compound, how does the IC50 [9] read?
Answer: The IC50 was 25.8 µM.

Question: For `CC[C@H](C)/C=C(C)/C=C/C(=O)Cc1cc(O)c(C)c(O)c1C=O` [EtOAc-D, 2,4-dihyroxy-6-(5,7-dimethyl-2-oxo-trans-3-trans-5-nonadienyl)-3-methylbenzaldehyde], which MIC ([1]; read-out: MIC (Mtb-rep)) is on record?
Answer: Its MIC is roughly 50 µg/mL (≈ 158 µM).

Question: What about the “effect on exposed zebrafish embryos” value [10] of the same compound?
Answer: Its value is “severely impaired heart morphology and curved trunk”.

Question: What about the IC50 ([11]; J774, read-out: IC50 (J774)) of the same compound?
Answer: The IC50 was roughly 200 µg/mL (≈ 632 µM).

Question: With `COc1cc2c(c(O)c1C)COC2=O` [EtOAc-F-8-3, 4-hydroxy-6-methoxy-5-methyl-1(3H)-isobenzofuranone] as the compound, how does the MIC [1, 13] read?
Answer: The MIC was 200 µg/mL (≈ 1030 µM).

Question: And the M. abscessus [2]?
Answer: Its M. abscessus is 200 µg/mL.

Question: With `CC[C@H](C)/C=C(C)/C=C/C1=CC2=C(Cl)C(=O)[C@](C)(OC(C)=O)C(=O)C2=CN1CCO` [EtOAc-O-7, Isochromophilone VI] as the compound, how does the “selectivity index (SI)” value ([1]; IC50 (J774) over MIC (Mtb)) read?
Answer: Its value is 10.78.

Question: And the MIC [1, 13]?
Answer: The MIC was 18.6 µg/mL (≈ 42.9 µM).

Question: What about the MIC ([1]; text b208, FIG. 11, replicating Mtb, read-out: MIC) of the same compound?
Answer: The MIC was 18 µg/mL (≈ 41.5 µM).

Question: What about the “bioactivity against replicating Mtb (in words)” value ([1]; conclusion b210) of the same compound?
Answer: The value was “promising bioactivity”.

Question: And the “activity against S. pyogenes” value [3]?
Answer: The value was “bioactivity”.

Question: And the “activity against S. typhimurium” value [4]?
Answer: Its value is “bioactivity”.

Question: What about the IC50 ([11]; J774) of the same compound?
Answer: The IC50 was 200 µg/mL (≈ 461 µM).

Question: And the IC50 ([11]; J774, read-out: IC50 (J774))?
Answer: Its IC50 is roughly 200 µg/mL (≈ 461 µM).

Question: What about the “cytotoxicity (in words)” value ([11]; conclusion b210, J774) of the same compound?
Answer: The value was “low cytotoxicity”.

Question: With `COc1ccc(-c2cc3c(c(=O)o2)C[C@]2(O)[C@@]4(C)CCC(=O)C(C)(C)[C@]4(O)CC[C@@]2(C)O3)cc1` [terreulactone C] as the compound, how does the IC50 [12] read?
Answer: Its IC50 is 0.028 µM.
